Measured values taken from patent publication US10787453B2, “Octahydropyrrolopyrroles their preparation and use” (The Trustees of Columbia University in the City of New York, priority 2013, dated 2020).

What was measured:
RBP4 [1] = biological target: T1, RBP4 (Homo sapiens (Human), UniProt P02753); test: Scintillation proximity RBP4 binding assay (SPA); settings: for IC50: 10 nM 3H-Retinol, 50 nM biotinylated RBP4
Protocol: Scintillation Proximity RBP4 Binding Assay
Untagged human RBP4 purified from urine of tubular proteinuria patients was purchased from Fitzgerald Industries International. It was biotinylated using the EZ-Link Sulfo-NHS-LC-Biotinylation kit from Pierce following the manufacturer's recommendations. Binding experiments were performed in 96-well plates (OptiPlate, PerkinElmer) in a final assay volume of 100 μl per well in SPA buffer (1×PBS, pH 7.4, 1 mM EDTA, 0.1% BSA, 0.5% CHAPS). The reaction mix contained 10 nM ^3H-Retinol (48.7 Ci/mmol; PerkinElmer), 0.3 mg/well Streptavidin-PVT beads, 50 nM biotinylated RBP4 and a test compound. Nonspecific binding was determined in the presence of 20 μM of unlabeled retinol. The reaction mix was assembled in the dark under dim red light. The plates were sealed with clear tape (TopSeal-A: 96-well microplate, PerkinElmer), wrapped in the aluminum foil, and allowed to equilibrate 6 hours at room temperature followed by overnight incubation at +4° C. Radiocounts were measured using a TopCount NXT counter (Packard Instrument Company).

RBP4-TTR interaction [2] = biological target: T2, RBP4-TTR interaction (Homo sapiens (Human), UniProt P02753); test: TR-FRET (HTRF) assay for retinol-induced RBP4-TTR interaction; type: biochemical; settings: for IC50: in the presence of 1 μM retinol, read-out: HTRF assay for antagonists of RBP4-TTR interaction IC50
Text: TR-FRET Assay for Retinol-Induced RBP4-TTR Interaction
Binding of a desired RBP4 antagonist displaces retinol and induces hindrance for RBP4-TTR interaction resulting in the decreased FRET signal (FIG. 7). Bacterially expressed MBP-RBP4 and untagged TTR were used in this assay. For the use in the TR-FRET assay the maltose binding protein (MBP)-tagged human RBP4 fragment (amino acids 19-201) was expressed in the Gold(DE3)pLysS E. coli strain (Stratagene) using the pMAL-c4x vector. Following cell lysis, recombinant RBP4 was purified from the soluble fraction using the ACTA FPLC system (GE Healthcare) equipped with the 5-ml the MBP Trap HP column. Human untagged TTR was purchased from Calbiochem. Untagged TTR was labeled directly with Eu^3+ Cryptate-NHS using the HTRF Cryptate Labeling kit from CisBio following the manufacturer's recommendations. HTRF assay was performed in white low volume 384 well plates (Greiner-Bio) in a final assay volume of 16 μl per well. The reaction buffer contained 10 mM Tris-HCl pH 7.5, 1 mM DTT, 0.05% NP-40, 0.05% Prionex, 6% glycerol, and 400 mM KF. Each reaction contained 60 nM MBP-RBP4 and 2 nM TTR-Eu along with 26.7 nM of anti-MBP antibody conjugated with d2 (Cisbio). Titration of test compounds in this assay was conducted in the presence of 1 μM retinol. All reactions were assembled in the dark under dim red light and incubated overnight at +4° C. wrapped in aluminum foil. TR-FRET signal was measured in the SpectraMax M5e Multimode Plate Reader (Molecular Device). Fluorescence was excited at 337 nm and two readings per well were taken: Reading 1 for time-gated energy transfer from Eu(K) to d2 (337 nm excitation, 668 nm emission, counting delay 75 microseconds, counting window 100 microseconds) and Reading 2 for Eu(K) time-gated fluorescence (337 nm excitation, 620 nm emission, counting delay 400 microseconds, counting window 400 microseconds). The TR-FRET signal was expressed as the ratio of fluorescence intensity: Flu665/Flu620×10,000.

[3] = tested on: wild-type and Abca4−/− mice; test: Efficacy in a mammalian model; type: in vivo, mouse; settings: orally dosed for 3 weeks at 30 mg/kg
Protocol: (§1) The effectiveness of the compounds listed in Example 1-46 are tested in wild-type and Abca4−/− mice. The Abca4−/− mouse model manifests accelerated accumulation of lipofuscin in the RPE and is considered a pre-clinical efficacy model for a drug reducing lipofuscin accumulation. Compounds are orally dosed for 3 weeks at 30 mg/kg. There is a reduction in the serum RBP4 level in treated animals. The levels of A2E/isoA2E and other bisretinoids are reduced in treated mice.
as §1, with “octahydropyrrolopyrroles 66 and 67” for “compounds listed in Example 1-46”
as §1, with “octahydropyrrolopyrroles of the present invention” for “compounds listed in Example 1-46”

RBP4-TTR interaction [4] = biological target: T2, RBP4-TTR interaction; settings: cited from earlier work
mice = settings: cited from earlier work
RBP4 [5] = biological target: T1, RBP4; settings: cited from earlier work
Abca4−/− mice = settings: cited from earlier work
serum RBP4 and retinol = settings: in vivo; cited from earlier work
[6] = tested on: retinal pigment epithelium cells; settings: many cell types, including retinal pigment epithelium cells; cited from earlier work

| RBP4 binding (SPA), in words (RBP4 [1]) | IC50 (RBP4 [1]) | IC50 (RBP4-TTR interaction [2]) | SMILES | antagonism of retinol-dependent RBP4-TTR interaction (HTRF), in words (RBP4-TTR interaction [2]) | levels of A2-DHP-PE and atRAL di-PE [3] | levels of A2E/isoA2E and other bisretinoids [3] | serum RBP4 level [3] | RBP4-TTR interaction (RBP4-TTR interaction [4]) | formation of hemangiosarcomas (mice) | binding to RBP4 (RBP4 [5]) | displacement of all-trans retinol from RBP4 (RBP4 [5]) | A2E production (Abca4−/− mice) | ocular all-trans retinol uptake (serum RBP4 and retinol) | serum RBP4 and retinol (serum RBP4 and retinol) | induction of apoptosis [6] |
| --- | --- | --- | --- | --- | --- | --- | --- | --- | --- | --- | --- | --- | --- | --- | --- |
| binded to RBP4 | 1.68 nM | 20.8 nM | Cc1ccc2nnc(C(=O)N3C[C@@H]4CN(c5ccccc5C(F)(F)F)C[C@@H]4C3)n2c1 [Compound 65, (6-Methyl-[1,2,4]triazolo[4,3-a]pyridin-3-yl)((3aR,6aS)-5-(2-(trifluoromethyl)phenyl)hexahydropyrrolo[3,4-c]pyrrol-2 (1H)-yl)methanone] | antagonized retinol-dependent RBP4-TTR interaction | – | – | – | – | – | – | – | – | – | – | – |
| binded to RBP4 | 3.9 nM | 74 nM | COC(=O)c1cc(C)nc(N2C[C@@H]3CN(c4ccccc4C(F)(F)F)C[C@@H]3C2)n1 [Compound 66, Methyl 6-methyl-2-((3aR,6aS)-5-(2-(trifluoromethyl)phenyl)hexahydropyrrolo[3,4-c]pyrrol-2(1H)-yl)pyrimidine-4-carboxylate] | antagonized retinol-dependent RBP4-TTR interaction | also reduced | reduced | reduction | – | – | – | – | – | – | – | – |
| – | – | – | Cc1cc(C(=O)O)nc(N2C[C@@H]3CN(c4ccccc4C(F)(F)F)C[C@@H]3C2)n1 [Compound 67, 6-Methyl-2-((3aR,6aS)-5-(2-(trifluoromethyl)phenyl)hexahydropyrrolo[3,4-c]pyrrol-2(1H)-yl)pyrimidine-4-carboxylic Acid] | – | also reduced | reduced | reduction | – | – | – | – | – | – | – | – |
| – | – | – | CC1=C(/C=C/C(C)=C/C=C/C(C)=C/C(=O)Nc2ccc(O)cc2)C(C)(C)CCC1 [fenretinide, N-(4-hydroxy-phenyl)retinamide] | – | – | – | – | disrupt the RBP4-TTR interaction | stimulate formation of hemangiosarcomas | bind to RBP4 | displace all-trans retinol from RBP4 | reduced A2E production | inhibit ocular all-trans retinol uptake | reduce serum RBP4 and retinol | extremely active inducer of apoptosis |
